Results published in patent US20210127673A1, “HERBICIDES” (SYNGENTA PARTICIPATIONS AG, priority 2016, published 2021).

What was measured:
Format in all cases: in vivo
Conditions in all cases: evaluated after 13 days
[1] = system: Triticum aestivium (TRZAW); assay: Pre-emergence herbicidal activity, Triticum aestivium; parameters: key: 5=total damage to plant; 0=no damage to plant
In short: (§1)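 Visual injury score, 0–5, taken 13 days after a pre-emergence spray applied one day post-sowing; spray vehicle acetone/water (50:50) with 0.5% Tween 20.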

[2] = system: Avena fatua (AVEFA); assay: Pre-emergence herbicidal activity, Avena fatua; parameters: key: 5=total damage to plant; 0=no damage to plant
In short: as §1

[3] = system: Alopecurus myosuroides (ALOMY); assay: Pre-emergence herbicidal activity, Alopecurus myosuroides; parameters: key: 5=total damage to plant; 0=no damage to plant
In short: as §1

[4] = system: Echinochloa crus-galli (ECHCG); assay: Pre-emergence herbicidal activity, Echinochloa crus-galli; parameters: key: 5=total damage to plant; 0=no damage to plant
In short: as §1

[5] = system: Lolium perenne (LOLPE); assay: Pre-emergence herbicidal activity, Lolium perenne; parameters: key: 5=total damage to plant; 0=no damage to plant
In short: as §1

[6] = system: Setaria faberi (SETFA); assay: Pre-emergence herbicidal activity, Setaria faberi; parameters: key: 5=total damage to plant; 0=no damage to plant
In short: as §1

[7] = system: Triticum aestivium (TRZAW); assay: Post-emergence herbicidal activity, Triticum aestivium; parameters: key: 5=total damage to plant; 0=no damage to plant
In short: (§2)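 Post-em, 8 d plants, pots; acetone:water 1:1 + 0.5% Tween 20 spray; 24/16 °C, 14 h photoperiod, 65% RH; 13 d readout, 0–5 phytotoxicity scale.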

[8] = system: Avena fatua (AVEFA); assay: Post-emergence herbicidal activity, Avena fatua
In short: as §2

[9] = system: Alopecurus myosuroides (ALOMY); assay: Post-emergence herbicidal activity, Alopecurus myosuroides; parameters: key: 5=total damage to plant; 0=no damage to plant
In short: as §2

[10] = system: Echinochloa crus-galli (ECHCG); assay: Post-emergence herbicidal activity, Echinochloa crus-galli; parameters: key: 5=total damage to plant; 0=no damage to plant
In short: as §2

[11] = system: Lolium perenne (LOLPE); assay: Post-emergence herbicidal activity, Lolium perenne; parameters: key: 5=total damage to plant; 0=no damage to plant
In short: as §2

[12] = system: Setaria faberi (SETFA); assay: Post-emergence herbicidal activity, Setaria faberi; parameters: key: 5=total damage to plant; 0=no damage to plant
In short: as §2

SMILES | Control of TRAZW after pre-emergence application (score 0-5) ([1]; 1000 g/ha) | Control of AVEFA after pre-emergence application (score 0-5) ([2]; 1000 g/ha) | Control of ALOMY after pre-emergence application (score 0-5) ([3]; 1000 g/ha) | Control of ECHCG after pre-emergence application (score 0-5) ([4]; 1000 g/ha) | Control of LOLPE after pre-emergence application (score 0-5) ([5]; 1000 g/ha) | Control of SETFA after pre-emergence application (score 0-5) ([6]; 1000 g/ha) | Control of TRAZW after post-emergence application (score 0-5) ([7]; 1000 g/ha) | Control of AVEFA after post-emergence application (score 0-5) ([8]; 1000 g/ha) | Control of ALOMY after post-emergence application (score 0-5) ([9]; 1000 g/ha) | Control of ECHCG after post-emergence application (score 0-5) ([10]; 1000 g/ha) | Control of LOLPE after post-emergence application (score 0-5) ([11]; 1000 g/ha) | Control of SETFA after post-emergence application (score 0-5) ([12]; 1000 g/ha) | other results
C=CCN(C(=O)OC(C)(C)C)c1ccc(-c2cncc(F)c2)nc1C(F)(F)F [Compound B9] | 0 | 2 | 1 | 3 | 2 | 5 | 1 | 3 | 1 | 5 | 4 | 5 | –
CC(C)(C)OC(=O)Nc1ccc(-c2cncc(F)c2)nc1C#N [Compound B34, tert-butyl N-[2-cyano-6-(5-fluoro-3-pyridyl)-3-pyridyl]carbamate] | 0 | 0 | 0 | 4 | 1 | 5 | 1 | 2 | 0 | 5 | 1 | 4 | –
O=C(Nc1ccc(-c2cncc(F)c2)nc1C(F)(F)F)NC1CCCC1 [Compound B50] | 0 | 1 | 0 | 2 | 1 | 4 | 0 | 3 | 0 | 4 | 1 | 5 | –
O=C(Nc1cc(Cl)cc(Cl)c1)Nc1ccc(-c2cncc(F)c2)nc1C(F)(F)F [Compound B88] | – | – | – | – | – | – | – | – | – | – | – | – | Control of TRAZW after pre-emergence application (score 0-5) ([1]; 250 g/ha): 0; Control of AVEFA after pre-emergence application (score 0-5) ([2]; 250 g/ha): 0; Control of ALOMY after pre-emergence application (score 0-5) ([3]; 250 g/ha): 0; Control of ECHCG after pre-emergence application (score 0-5) ([4]; 250 g/ha): 1; Control of LOLPE after pre-emergence application (score 0-5) ([5]; 250 g/ha): 2; Control of SETFA after pre-emergence application (score 0-5) ([6]; 250 g/ha): 2; Control of TRAZW after post-emergence application (score 0-5) ([7]; 250 g/ha): 0; Control of AVEFA after post-emergence application (score 0-5) ([8]; 250 g/ha): 1; Control of ALOMY after post-emergence application (score 0-5) ([9]; 250 g/ha): 0; Control of ECHCG after post-emergence application (score 0-5) ([10]; 250 g/ha): 1; Control of LOLPE after post-emergence application (score 0-5) ([11]; 250 g/ha): 0; Control of SETFA after post-emergence application (score 0-5) ([12]; 250 g/ha): 1
O=C(Nc1ccc(-c2cncc(F)c2)nc1C(F)(F)F)OCc1ccc(Cl)cc1 [Compound B105] | 0 | 1 | 0 | 2 | 1 | 5 | 0 | 3 | 0 | 4 | 1 | 5 | –
O=C(Nc1ccc(-c2cncc(F)c2)nc1C(F)(F)F)OCC1CC1 [Compound B94] | 0 | 3 | 1 | 4 | 2 | 5 | 0 | 3 | 0 | 5 | 3 | 5 | –
CC(C)(C#N)OC(=O)Nc1ccc(-c2cncc(F)c2)nc1C(F)(F)F [Compound B118] | 0 | 0 | 0 | 2 | 0 | 4 | 0 | 3 | 0 | 3 | 1 | 4 | –
CC#Cc1cncc(-c2ccc(NC(=O)OC(C)(C)C)c(C)n2)c1 [Compound B33] | 0 | 2 | 0 | 2 | 1 | 4 | 2 | 4 | 2 | 2 | 3 | 5 | –
Cc1cnc(CNC(=O)Nc2ccc(-c3cncc(F)c3)nc2C(F)(F)F)cn1 [Compound B92] | – | – | – | – | – | – | – | – | – | – | – | – | Control of TRAZW after pre-emergence application (score 0-5) ([1]; 250 g/ha): 0; Control of AVEFA after pre-emergence application (score 0-5) ([2]; 250 g/ha): 1; Control of ALOMY after pre-emergence application (score 0-5) ([3]; 250 g/ha): 0; Control of ECHCG after pre-emergence application (score 0-5) ([4]; 250 g/ha): 1; Control of LOLPE after pre-emergence application (score 0-5) ([5]; 250 g/ha): 0; Control of SETFA after pre-emergence application (score 0-5) ([6]; 250 g/ha): 5; Control of TRAZW after post-emergence application (score 0-5) ([7]; 250 g/ha): 0; Control of AVEFA after post-emergence application (score 0-5) ([8]; 250 g/ha): 3; Control of ALOMY after post-emergence application (score 0-5) ([9]; 250 g/ha): 0; Control of ECHCG after post-emergence application (score 0-5) ([10]; 250 g/ha): 3; Control of LOLPE after post-emergence application (score 0-5) ([11]; 250 g/ha): 1; Control of SETFA after post-emergence application (score 0-5) ([12]; 250 g/ha): 4
C#CC(C)(C)NC(=O)Nc1ccc(-c2cncc(F)c2)nc1C(F)(F)F [Compound B102] | 0 | 3 | 0 | 4 | 2 | 5 | 1 | 4 | 1 | 5 | 3 | 5 | –
CCCCN(C)C(=O)Nc1ccc(-c2cncc(F)c2)nc1C(F)(F)F [Compound B95] | – | – | – | – | – | – | – | – | – | – | – | – | Control of TRAZW after pre-emergence application (score 0-5) ([1]; 250 g/ha): 0; Control of AVEFA after pre-emergence application (score 0-5) ([2]; 250 g/ha): 0; Control of ALOMY after pre-emergence application (score 0-5) ([3]; 250 g/ha): 0; Control of ECHCG after pre-emergence application (score 0-5) ([4]; 250 g/ha): 1; Control of LOLPE after pre-emergence application (score 0-5) ([5]; 250 g/ha): 1; Control of SETFA after pre-emergence application (score 0-5) ([6]; 250 g/ha): 4; Control of TRAZW after post-emergence application (score 0-5) ([7]; 250 g/ha): 0; Control of AVEFA after post-emergence application (score 0-5) ([8]; 250 g/ha): 3; Control of ALOMY after post-emergence application (score 0-5) ([9]; 250 g/ha): 0; Control of ECHCG after post-emergence application (score 0-5) ([10]; 250 g/ha): 2; Control of LOLPE after post-emergence application (score 0-5) ([11]; 250 g/ha): 1; Control of SETFA after post-emergence application (score 0-5) ([12]; 250 g/ha): 5
CC(C)(C)OC(=O)N(C(=O)OC(C)(C)C)c1ccc(-c2cncc(F)c2)nc1C#N [Compound B114] | 0 | 1 | 0 | 5 | 1 | 5 | 1 | 4 | 0 | 5 | 3 | 5 | –
